What follows are compounds tested against Methionine aminopeptidase 2 (Homo sapiens, UniProt P50579) (assay: Biochemical Assays). Settings: pH 7.5.
Methionine aminopeptidase 2, sequence (P50579 whole entry): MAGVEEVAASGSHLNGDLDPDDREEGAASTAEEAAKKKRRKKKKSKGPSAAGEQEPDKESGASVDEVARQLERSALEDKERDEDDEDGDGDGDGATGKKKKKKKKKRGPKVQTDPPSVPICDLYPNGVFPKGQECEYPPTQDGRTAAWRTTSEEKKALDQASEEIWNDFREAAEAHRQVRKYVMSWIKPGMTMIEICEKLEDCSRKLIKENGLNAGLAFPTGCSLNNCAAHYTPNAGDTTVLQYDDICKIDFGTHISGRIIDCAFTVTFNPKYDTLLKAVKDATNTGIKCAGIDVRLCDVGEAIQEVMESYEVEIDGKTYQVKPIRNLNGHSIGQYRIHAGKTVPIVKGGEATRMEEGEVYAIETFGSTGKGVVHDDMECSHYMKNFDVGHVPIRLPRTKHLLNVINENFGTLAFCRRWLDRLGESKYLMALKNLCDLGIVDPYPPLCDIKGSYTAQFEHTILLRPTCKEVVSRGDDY
Description: Stock solutions for all assays were prepared in DMSO (10 mM) and stored at −20 °C. Assays were performed in 96 well plates (Greiner) at a total reaction volume of 100 μL. […] Then, the substrate Met-Gly-Met-Met was added to a final concentration of 400 μM. After an incubation period of 15 min (HsMetAP1), 20 min (EcMetAP), or 60 min (HsMetAP2) at 37 °C, the enzyme reactionwas stopped by adding 10 μL 4% trifluoroacetic acid (TFA), and the plate was centrifuged at 1000g for 10 min. Detection of the product Gly-Met-Met was performed by HPLC: C18 column (Dr. Maisch, ReproSil-Pur 120 ODS-3, 3 μm, 50 × 2 mm). An 80 μL injection volume was eluted with mobile phases A (H2O and 0.1% TFA, filtered, degasse
`N#Cc1cccc(Cn2nnc3c2C2(CCC3=O)CO2)c1` (centres undefined) [3-((7-oxo-6,7-dihydrospiro[benzo[d][1,2,3]triazole-4,2'-oxiran]-3(5H)-yl)methyl)benzonitrile (24)] was tested, and the IC50 was 1100 nM. Work on `CC(C)NC(=O)O[C@@H]1CC[C@]2(CO2)c2c1nnn2Cc1ccccc1` (relative stereo) [(2'R*,7R*)-3-benzyl-3,5,6,7-tetrahydrospiro [benzo[d][1,2,3]triazole-4,2'-oxiran]-7-yl isopropylcarbamate (30a)] yielded an IC50 of 780 nM. In the case of `O=C(O[C@H]1CC[C@]2(CO2)c2c1nnn2Cc1ccccc1)c1ccccc1` (relative stereo) [(2'R*,7S*)-3-benzyl-3,5,6,7-tetrahydrospiro [benzo[d][1,2,3]triazole-4,2'-oxiran]-7-yl benzoate (29b)], the IC50 is reported as greater than 50000 nM. `O=C1CCC2(CO2)c2c1nnn2CC1CCCCC1` (centres undefined) [3-(cyclohexylmethyl)-5,6-dihydrospiro[benzo[d][1,2,3]triazole-4,2'-oxiran]-7(3H)-one (21)] gave an IC50 greater than 50000 nM. `O=C1CCC2(CO2)c2c1nnn2Cc1ccc2ccccc2c1` (centres undefined) [3-(naphthalen-2-ylmethyl)-5,6-dihydrospiro[benzo[d][1,2,3]triazole-4,2'-oxiran]-7(3H)-one (25)] was tested, and the IC50 was 590 nM. `O=C1CCC2(CO2)c2c1nnn2Cc1ccc(F)cc1` (centres undefined) [3-(4-fluorobenzyl)-5,6-dihydrospiro[benzo[d][1,2,3]triazole-4,2'-oxiran]-7(3H)-one (26)] was tested, and the IC50 was 250 nM. With `COc1ccc(Cn2nnc3c2[C@]2(CC[C@H]3OC(=O)Nc3ccccc3)CO2)cc1` (relative stereo) [(2'R*,7R*)-3-(4-methoxybenzyl)-3,5,6,7-tetrahydrospiro[benzo[d][1,2,3]triazole-4,2'-oxiran]-7-yl phenylcarbamate (34)] the IC50 was 990 nM. `COc1ccc(Cn2nnc3c2[C@]2(CC[C@H]3NC(=O)OCC(C)C)CO2)cc1` [isobutyl ((2'R*,7R*)-3-(4-methoxybenzyl)-3,5,6,7-tetrahydrospiro[benzo[d][1,2,3]triazole-4,2'-oxiran]-7-yl)carbamate (35)] was tested, and the IC50 was 600 nM. `O=C1CCC2(CO2)c2c1nnn2Cc1ccccc1` (centres undefined) [3-benzyl-5,6-dihydrospiro[benzo[d][1,2,3]triazole-4,2'-oxiran]-7(3H)-one (22)] gave an IC50 of 2900 nM. Compound `CC(C)NC(=O)O[C@H]1CC[C@]2(CO2)c2c1nnn2Cc1ccccc1` (relative stereo) [(2'R*,7S*)-3-benzyl-3,5,6,7-tetrahydrospiro [benzo[d][1,2,3]triazole-4,2'-oxiran]-7-yl isopropylcarbamate (30b)] has an IC50 of 46000 nM. For `O=C(O[C@@H]1CC[C@]2(CO2)c2c1nnn2Cc1ccccc1)c1ccccc1` (relative stereo) [(2'R*,7R*)-3-benzyl-3,5,6,7-tetrahydrospiro [benzo[d][1,2,3]triazole-4,2'-oxiran]-7-yl benzoate (29a)], the IC50 was 1400 nM. Work on `C=C1CCC(OC(=O)c2ccccc2)c2nnn(Cc3ccc(OC)cc3)c21` (centres undefined) [1-[(4-methoxyphenyl)methyl]-7-methylidene-4,5,6,7-tetrahydro-1H-1,2,3-benzotriazol-4-yl benzoate (16)] yielded an IC50 greater than 50000 nM. With `O=C1CCC2(CO2)c2c1nnn2Cc1ccc(Cl)cc1` (centres undefined) [3-(4-chlorobenzyl)-5,6-dihydrospiro[benzo[d][1,2,3]triazole-4,2'-oxiran]-7(3H)-one (27)] the IC50 was 520 nM. Compound `O=C1CCC2(CO2)c2c1nnn2Cc1ccc(C(F)(F)F)cc1` (centres undefined) [3-(4-(trifluoromethyl)benzyl)-5,6-dihydrospiro[benzo[d][1,2,3]triazole-4,2'-oxiran]-7(3H)-one (28)] has an IC50 of 440 nM. `COc1ccc(Cn2nnc3c2[C@]2(CC[C@H]3OC(=O)c3ccccc3)CO2)cc1` [(2'R*,7R*)-3-(4-methoxybenzyl)-3,5,6,7-tetrahydrospiro[benzo[d][1,2,3]triazole-4,2'-oxiran]-7-yl benzoate (17a)] gave an IC50 of 930 nM. For `COc1ccc(Cn2nnc3c2[C@]2(CC[C@H]3OC(=O)NCC(C)C)CO2)cc1` (relative stereo) [(2'R*,7R*)-3-(4-methoxybenzyl)-3,5,6,7-tetrahydrospiro[benzo[d][1,2,3]triazole-4,2'-oxiran]-7-yl isobutylcarbamate (32)], the IC50 was 600 nM. `COc1ccc(Cn2nnc3c2[C@]2(CC[C@@H]3OC(=O)c3ccccc3)CO2)cc1` [(2'R*,7S*)-3-(4-methoxybenzyl)-3,5,6,7-tetrahydrospiro[benzo[d][1,2,3]triazole-4,2'-oxiran]-7-yl benzoate (17b)] showed an IC50 of 35000 nM. Work on `COc1ccc(Cn2nnc3c2C2(CCC3=O)CO2)cc1` (centres undefined) [3-(4-methoxybenzyl)-5,6-dihydrospiro[benzo[d][1,2,3]triazole-4,2'-oxiran]-7(3H)-one (14)] yielded an IC50 of 460 nM. `Cc1ccccc1Cn1nnc2c1C1(CCC2=O)CO1` (centres undefined) [3-(2-methylbenzyl)-5,6-dihydrospiro[benzo[d][1,2,3]triazole-4,2'-oxiran]-7(3H)-one (23)] showed an IC50 of 2300 nM.

From BindingDB's records for doi:10.1021/acschembio.5b00755 (German Cancer Research Center (Dkfz), 2016)
